# Laboratory results as given in the supplement of paper PMC10307832.
# What was measured:
# Assay in all cases: relative viability (nuclei count vs DMSO), 5 days (fraction); higher = more cells survive
# NCI-H1792 = system: NCI-H1792
# Procedure, shortened: (§1)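 After 5 days of treatment, lung cancer cells in 1536-well plates were fixed and stained in a single step (final 0.05% Triton X-100, 1% formaldehyde, 1 ug/ml Hoechst) and their nuclei counted on 4× images. Treatment had been applied by pin tool the day after seeding as one drug alone or as a fixed anchor-drug dose with five library-drug doses (not always all listed) in √10 steps. Relative viability is the nuclei count of treated wells divided by that of vehicle wells, and values are medians of duplicate plates.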
# NCI-H838 = system: NCI-H838
# Procedure, shortened: as §1
# HCC-44 = system: HCC-44
# Procedure, shortened: as §1
# NCI-H650 = system: NCI-H650
# Procedure, shortened: as §1
# NCI-H358 = system: NCI-H358
# Procedure, shortened: as §1
# EKVX = system: EKVX
# Procedure, shortened: as §1
# NCI-H23 = system: NCI-H23
# Procedure, shortened: as §1
# NCI-H1650 = system: NCI-H1650
# Procedure, shortened: as §1
# NCI-H441 = system: NCI-H441
# Procedure, shortened: as §1
# HCC-15 = system: HCC-15
# Procedure, shortened: as §1
# BEN = system: BEN
# Procedure, shortened: as §1
# NCI-H2342 = system: NCI-H2342
# Procedure, shortened: as §1
# HCC-827 = system: HCC-827
# Procedure, shortened: as §1
# NCI-H1437 = system: NCI-H1437
# Procedure, shortened: as §1
# A-427 = system: A-427
# Procedure, shortened: as §1
# NCI-H1975 = system: NCI-H1975
# Procedure, shortened: as §1
# HARA = system: HARA
# Procedure, shortened: as §1
# SW 900 = system: SW 900
# Procedure, shortened: as §1
# COR-L23 = system: COR-L23
# Procedure, shortened: as §1
# SK-MES-1 = system: SK-MES-1
# Procedure, shortened: as §1
# 201T = system: 201T
# Procedure, shortened: as §1
# NCI-H596 = system: NCI-H596
# Procedure, shortened: as §1
compound,measurement,setting,value
Nc1ccn([C@@H]2O[C@H](CO)[C@@H](O)[C@@H]2O)c(=O)n1 [Cytarabine] + CCNC(=O)c1noc(-c2cc(C(C)C)c(O)cc2O)c1-c1ccc(CN2CCOCC2)cc1 [Luminespib] (partner 0.01 µM),relative viability,NCI-H1792; first compound 0.01581 µM,0.431
same,relative viability,NCI-H1792; first compound 0.05 µM,0.366
same,relative viability,NCI-H1792; first compound 0.1581 µM,0.313
same,relative viability,NCI-H1792; first compound 0.5 µM,0.271
same,relative viability,NCI-H838; first compound 0.005 µM,0.234
same,relative viability,NCI-H838; first compound 0.01581 µM,0.3
same,relative viability,NCI-H838; first compound 0.05 µM,0.303
same,relative viability,NCI-H838; first compound 0.1581 µM,0.186
same,relative viability,NCI-H838; first compound 0.5 µM,0.167
same,relative viability,HCC-44; first compound 0.005 µM,0.949
same,relative viability,HCC-44; first compound 0.01581 µM,1.05
same,relative viability,HCC-44; first compound 0.05 µM,0.403
same,relative viability,HCC-44; first compound 0.1581 µM,0.257
same,relative viability,HCC-44; first compound 0.5 µM,0.185
same,relative viability,NCI-H650; first compound 0.005 µM,0.606
same,relative viability,NCI-H650; first compound 0.01581 µM,0.485
same,relative viability,NCI-H650; first compound 0.05 µM,0.253
same,relative viability,NCI-H650; first compound 0.1581 µM,0.187
same,relative viability,NCI-H650; first compound 0.5 µM,0.17
same,relative viability,NCI-H358; first compound 0.005 µM,0.338
same,relative viability,NCI-H358; first compound 0.01581 µM,0.582
same,relative viability,NCI-H358; first compound 0.05 µM,0.34
same,relative viability,NCI-H358; first compound 0.1581 µM,0.144
same,relative viability,NCI-H358; first compound 0.5 µM,0.181
same,relative viability,EKVX; first compound 0.005 µM,0.918
same,relative viability,EKVX; first compound 0.01581 µM,0.743
same,relative viability,EKVX; first compound 0.05 µM,0.736
same,relative viability,EKVX; first compound 0.1581 µM,0.287
same,relative viability,EKVX; first compound 0.5 µM,0.186
same,relative viability,NCI-H23; first compound 0.005 µM,0.179
same,relative viability,NCI-H23; first compound 0.01581 µM,0.192
same,relative viability,NCI-H23; first compound 0.05 µM,0.197
same,relative viability,NCI-H23; first compound 0.1581 µM,0.199
same,relative viability,NCI-H23; first compound 0.5 µM,0.188
same,relative viability,NCI-H1650; first compound 0.005 µM,0.208
same,relative viability,NCI-H1650; first compound 0.01581 µM,0.181
same,relative viability,NCI-H1650; first compound 0.05 µM,0.254
same,relative viability,NCI-H1650; first compound 0.1581 µM,0.218
same,relative viability,NCI-H1650; first compound 0.5 µM,0.209
same,relative viability,NCI-H441; first compound 0.005 µM,0.283
same,relative viability,NCI-H441; first compound 0.01581 µM,0.252
same,relative viability,NCI-H441; first compound 0.05 µM,0.354
same,relative viability,NCI-H441; first compound 0.1581 µM,0.266
same,relative viability,NCI-H441; first compound 0.5 µM,0.271
same,relative viability,HCC-15; first compound 0.005 µM,0.328
same,relative viability,HCC-15; first compound 0.01581 µM,0.416
same,relative viability,HCC-15; first compound 0.05 µM,0.354
same,relative viability,HCC-15; first compound 0.1581 µM,0.428
same,relative viability,HCC-15; first compound 0.5 µM,0.267
same,relative viability,BEN; first compound 0.005 µM,0.178
same,relative viability,BEN; first compound 0.01581 µM,0.324
same,relative viability,BEN; first compound 0.05 µM,0.247
same,relative viability,BEN; first compound 0.1581 µM,0.178
same,relative viability,BEN; first compound 0.5 µM,0.122
same,relative viability,NCI-H2342; first compound 0.005 µM,0.597
same,relative viability,NCI-H2342; first compound 0.01581 µM,0.723
same,relative viability,NCI-H2342; first compound 0.05 µM,0.642
same,relative viability,NCI-H2342; first compound 0.1581 µM,0.462
same,relative viability,NCI-H2342; first compound 0.5 µM,0.444
same,relative viability,HCC-827; first compound 0.005 µM,0.591
same,relative viability,HCC-827; first compound 0.01581 µM,0.396
same,relative viability,HCC-827; first compound 0.05 µM,0.336
same,relative viability,HCC-827; first compound 0.1581 µM,0.154
same,relative viability,HCC-827; first compound 0.5 µM,0.144
same,relative viability,NCI-H1437; first compound 0.005 µM,0.86
same,relative viability,NCI-H1437; first compound 0.01581 µM,0.852
same,relative viability,NCI-H1437; first compound 0.05 µM,0.571
same,relative viability,NCI-H1437; first compound 0.1581 µM,0.301
same,relative viability,NCI-H1437; first compound 0.5 µM,0.23
same,relative viability,A-427; first compound 0.005 µM,0.708
same,relative viability,A-427; first compound 0.01581 µM,0.425
same,relative viability,A-427; first compound 0.05 µM,0.238
same,relative viability,A-427; first compound 0.1581 µM,0.186
same,relative viability,A-427; first compound 0.5 µM,0.161
same,relative viability,NCI-H1975; first compound 0.005 µM,0.536
same,relative viability,NCI-H1975; first compound 0.01581 µM,0.316
same,relative viability,NCI-H1975; first compound 0.05 µM,0.193
same,relative viability,NCI-H1975; first compound 0.1581 µM,0.209
same,relative viability,NCI-H1975; first compound 0.5 µM,0.171
same,relative viability,HARA; first compound 0.005 µM,0.898
same,relative viability,HARA; first compound 0.01581 µM,0.303
same,relative viability,HARA; first compound 0.05 µM,0.27
same,relative viability,HARA; first compound 0.1581 µM,0.1
same,relative viability,HARA; first compound 0.5 µM,0.0906
same,relative viability,SW 900; first compound 0.005 µM,0.16
same,relative viability,SW 900; first compound 0.01581 µM,0.184
same,relative viability,SW 900; first compound 0.05 µM,0.186
same,relative viability,SW 900; first compound 0.1581 µM,0.142
same,relative viability,SW 900; first compound 0.5 µM,0.137
same,relative viability,COR-L23; first compound 0.005 µM,0.481
same,relative viability,COR-L23; first compound 0.01581 µM,0.789
same,relative viability,COR-L23; first compound 0.05 µM,0.628
same,relative viability,COR-L23; first compound 0.1581 µM,0.257
same,relative viability,COR-L23; first compound 0.5 µM,0.163
same,relative viability,SK-MES-1; first compound 0.005 µM,0.934
same,relative viability,SK-MES-1; first compound 0.01581 µM,0.565
same,relative viability,SK-MES-1; first compound 0.05 µM,0.319
same,relative viability,SK-MES-1; first compound 0.1581 µM,0.226
same,relative viability,SK-MES-1; first compound 0.5 µM,0.232
same,relative viability,201T; first compound 0.005 µM,1.09
same,relative viability,201T; first compound 0.01581 µM,1.12
same,relative viability,201T; first compound 0.05 µM,1.14
same,relative viability,201T; first compound 0.1581 µM,0.982
same,relative viability,201T; first compound 0.5 µM,0.974
same,relative viability,NCI-H596; first compound 0.005 µM,0.933
same,relative viability,NCI-H596; first compound 0.01581 µM,0.841
same,relative viability,NCI-H596; first compound 0.05 µM,0.685
same,relative viability,NCI-H596; first compound 0.1581 µM,0.548
same,relative viability,NCI-H596; first compound 0.5 µM,0.388
